According to patent US4835155A, “Process for protection of brain cells” (Nippon Chemiphar Co., Ltd., priority 1986, dated 1989):
Structures can show the parent of a compound that is named as a salt.

Experiments:
[1] = Acute toxicity, oral, observed for seven days; settings: in vivo, ddN male mouse about 20 g
[2] = system: brain cells (delayed neuronal damage); settings: Kirino et al., Progress in Brain Research, vol. 63: 39-58 (1985); cited from earlier work
[3] = pentobarbital acts nonselectively; cited from earlier work

COc1cc(C(O)CN2CCN(C(c3ccccc3)c3ccccc3)CC2)cc(OC)c1OC (stereo not shown) [B, 2(4-diphenylmethylpiperazinyl)-1-(3,4,5-trimethoxyphenyl)ethanol monohydrochloride] showed an LD50 at 168 h [1] greater than 2000 mg/kg.

Oc1ccc(C(O)CN2CCN(C(c3ccccc3)c3ccccc3)CC2)cc1 (stereo not shown) [C, 2(4-diphenylmethylpiperazinyl)-1-(4-hydroxyphenyl)ethanol monohydrochloride] showed an LD50 at 168 h [1] greater than 2000 mg/kg.

In the case of CCCC(C)C1(CC)C(=O)NC(=O)NC1=O (stereo not shown) [pentobarbital], the “Effect of protection of brain cells / suppression of delayed neuronal damage” value [2] is given as “markedly suppress the above-mentioned delayed neuronal damage” and the “Action on central nervous system” value [3] is given as “the action of central nervous system is also strongly subsided”.
